Where two headings read alike, the source gives them in different places.
What was measured:
Type in all cases: cell-based
[1] = biological target: protein kinases (human kinome) (Homo sapiens, UniProt P19525); conditions: for logFC: EIF2AK2 (P19525)
[2] = biological target: protein kinases (human kinome) (Homo sapiens, UniProt P31751); conditions: AKT2 (P31751)
[3] = biological target: T1, protein kinases (human kinome) (Homo sapiens, UniProt Q9Y616); conditions: experiment wp146; for logFC: IRAK3 (Q9Y616)
T1 sequence (Q9Y616 1-596): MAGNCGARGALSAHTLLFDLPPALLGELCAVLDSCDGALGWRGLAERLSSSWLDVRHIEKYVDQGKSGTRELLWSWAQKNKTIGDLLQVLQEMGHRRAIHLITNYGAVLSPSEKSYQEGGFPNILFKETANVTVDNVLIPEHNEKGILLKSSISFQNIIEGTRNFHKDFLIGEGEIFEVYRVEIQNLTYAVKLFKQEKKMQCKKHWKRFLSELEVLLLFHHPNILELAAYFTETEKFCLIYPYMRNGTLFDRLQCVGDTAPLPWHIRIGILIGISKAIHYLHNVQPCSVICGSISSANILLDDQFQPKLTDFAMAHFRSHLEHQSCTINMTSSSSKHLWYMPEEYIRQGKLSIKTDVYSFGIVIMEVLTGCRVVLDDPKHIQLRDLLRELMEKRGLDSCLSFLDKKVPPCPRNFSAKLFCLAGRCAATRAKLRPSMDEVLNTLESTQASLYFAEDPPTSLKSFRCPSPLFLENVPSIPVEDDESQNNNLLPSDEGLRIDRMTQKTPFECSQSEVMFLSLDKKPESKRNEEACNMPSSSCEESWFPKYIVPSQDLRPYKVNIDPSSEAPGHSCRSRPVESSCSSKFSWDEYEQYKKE

[4] = biological target: T2, protein kinases (human kinome) (Homo sapiens, UniProt Q8TBX8); conditions: PIP4K2C Q8TBX8-1
T2 sequence (Q8TBX8 1-421): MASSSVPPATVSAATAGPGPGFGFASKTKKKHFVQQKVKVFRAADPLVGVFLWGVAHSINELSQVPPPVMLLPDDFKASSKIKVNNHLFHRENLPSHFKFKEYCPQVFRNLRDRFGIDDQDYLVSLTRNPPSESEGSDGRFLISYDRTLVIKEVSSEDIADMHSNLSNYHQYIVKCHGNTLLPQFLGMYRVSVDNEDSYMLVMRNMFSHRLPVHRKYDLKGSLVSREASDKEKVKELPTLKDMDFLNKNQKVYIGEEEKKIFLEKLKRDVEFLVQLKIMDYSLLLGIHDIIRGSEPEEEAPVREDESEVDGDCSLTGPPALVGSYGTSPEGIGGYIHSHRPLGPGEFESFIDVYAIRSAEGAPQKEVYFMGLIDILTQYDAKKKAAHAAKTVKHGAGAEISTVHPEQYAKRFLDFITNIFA

[5] = biological target: protein kinases (human kinome) (Homo sapiens, UniProt P51617); conditions: IRAK1 (P51617)
[6] = biological target: T3, protein kinases (human kinome) (Homo sapiens, UniProt O14757); conditions: for logFC: CHEK1 (O14757)
T3 sequence (O14757 1-476): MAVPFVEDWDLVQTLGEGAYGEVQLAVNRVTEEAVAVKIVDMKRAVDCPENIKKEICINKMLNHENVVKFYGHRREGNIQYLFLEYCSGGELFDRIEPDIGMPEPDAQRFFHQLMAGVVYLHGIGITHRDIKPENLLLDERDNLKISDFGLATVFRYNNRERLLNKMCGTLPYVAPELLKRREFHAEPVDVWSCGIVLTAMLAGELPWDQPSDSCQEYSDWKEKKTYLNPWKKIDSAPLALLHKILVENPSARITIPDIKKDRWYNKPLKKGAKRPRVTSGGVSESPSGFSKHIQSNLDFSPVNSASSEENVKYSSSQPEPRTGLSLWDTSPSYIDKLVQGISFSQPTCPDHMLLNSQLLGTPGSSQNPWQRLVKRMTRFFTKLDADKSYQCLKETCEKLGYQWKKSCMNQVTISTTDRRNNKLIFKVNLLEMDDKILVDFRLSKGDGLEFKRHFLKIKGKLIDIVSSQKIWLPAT

[7] = experiment wp105, direction down
[8] = experiment wp107, direction down

Chain of protein kinases (human kinome) (Homo sapiens, UniProt P19525) (P19525 whole entry): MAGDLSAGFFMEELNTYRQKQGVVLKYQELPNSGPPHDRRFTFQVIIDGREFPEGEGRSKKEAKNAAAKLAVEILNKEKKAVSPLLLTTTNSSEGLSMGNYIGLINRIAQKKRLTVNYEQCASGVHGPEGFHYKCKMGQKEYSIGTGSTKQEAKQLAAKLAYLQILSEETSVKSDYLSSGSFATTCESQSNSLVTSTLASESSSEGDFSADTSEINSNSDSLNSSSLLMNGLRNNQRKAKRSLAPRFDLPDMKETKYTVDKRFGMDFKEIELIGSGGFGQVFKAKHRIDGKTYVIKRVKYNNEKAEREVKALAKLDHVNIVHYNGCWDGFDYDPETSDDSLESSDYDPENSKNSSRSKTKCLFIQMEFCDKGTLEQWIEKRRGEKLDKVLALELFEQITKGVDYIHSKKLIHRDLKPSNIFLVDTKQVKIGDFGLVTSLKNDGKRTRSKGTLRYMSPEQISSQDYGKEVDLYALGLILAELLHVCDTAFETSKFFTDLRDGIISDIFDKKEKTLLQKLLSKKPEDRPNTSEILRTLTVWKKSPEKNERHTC
Chain of protein kinases (human kinome) (Homo sapiens, UniProt P31751) (P31751 whole entry): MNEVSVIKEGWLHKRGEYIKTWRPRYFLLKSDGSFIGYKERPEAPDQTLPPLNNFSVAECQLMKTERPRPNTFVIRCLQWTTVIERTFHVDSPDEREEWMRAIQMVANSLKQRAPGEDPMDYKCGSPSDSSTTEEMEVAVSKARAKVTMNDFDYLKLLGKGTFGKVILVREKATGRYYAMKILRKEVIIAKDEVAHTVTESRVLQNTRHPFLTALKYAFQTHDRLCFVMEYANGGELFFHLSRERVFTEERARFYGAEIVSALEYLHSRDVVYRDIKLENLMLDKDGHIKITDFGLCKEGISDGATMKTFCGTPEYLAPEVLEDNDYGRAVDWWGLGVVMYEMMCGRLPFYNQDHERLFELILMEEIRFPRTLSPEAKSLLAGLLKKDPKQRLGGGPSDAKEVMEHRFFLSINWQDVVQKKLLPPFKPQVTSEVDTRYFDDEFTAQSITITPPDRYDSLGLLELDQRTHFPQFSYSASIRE
Chain of protein kinases (human kinome) (Homo sapiens, UniProt P51617) (P51617 whole entry): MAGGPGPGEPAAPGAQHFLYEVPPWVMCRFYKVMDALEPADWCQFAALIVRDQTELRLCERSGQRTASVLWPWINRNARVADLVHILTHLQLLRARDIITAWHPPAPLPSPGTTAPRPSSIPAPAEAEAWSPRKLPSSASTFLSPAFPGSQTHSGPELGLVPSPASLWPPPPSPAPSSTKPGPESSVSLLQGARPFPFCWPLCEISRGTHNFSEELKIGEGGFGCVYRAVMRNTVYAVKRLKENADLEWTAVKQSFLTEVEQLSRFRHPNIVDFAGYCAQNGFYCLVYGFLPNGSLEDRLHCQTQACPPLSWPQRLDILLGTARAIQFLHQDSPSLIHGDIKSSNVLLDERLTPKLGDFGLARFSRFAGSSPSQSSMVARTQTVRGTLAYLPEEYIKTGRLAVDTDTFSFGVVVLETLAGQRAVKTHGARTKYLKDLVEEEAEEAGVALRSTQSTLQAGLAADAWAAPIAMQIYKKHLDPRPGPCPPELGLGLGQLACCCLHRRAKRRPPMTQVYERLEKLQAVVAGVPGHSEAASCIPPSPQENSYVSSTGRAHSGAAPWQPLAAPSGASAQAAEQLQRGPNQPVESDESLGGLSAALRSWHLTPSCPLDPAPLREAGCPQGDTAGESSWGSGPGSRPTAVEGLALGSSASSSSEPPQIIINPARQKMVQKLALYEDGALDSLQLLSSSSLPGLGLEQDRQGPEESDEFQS

SMILES: CS(=O)(=O)Nc1cccc(-c2csc3cnc(Nc4ccc(N5CCN(CCCCCOc6cccc7c6C(=O)N(C6CCC(=O)NC6=O)C7=O)CC5)cc4)nc23)c1 (stereo not shown) [DB0614, N-(3-(2-((4-(4-(5-((2-(2,6-Dioxopiperidin-3-yl)-1,3-dioxoisoindolin-4-yl)oxy)pentyl)piperazin-1-yl)phenyl)amino)thieno[3,2-d]pyrimidin-7-yl)phenyl)methanesulfonamide]
- logFC ([1]; experiment wp117): −0.3221
- logFC of EIF2AK2 (P19525) ([1]; Experiment wp117): −0.3221

SMILES: CC(C)S(=O)(=O)c1ccccc1Nc1nc(Nc2ccc(N3CCN(CCOCCNC(=O)CNc4cccc5c4C(=O)N(C4CCC(=O)NC4=O)C5=O)CC3)cc2)ncc1Cl (stereo not shown) [SK.3.91]
- logFC ([2]; experiment wp105): −0.8722
- logFC [2, 7]: −0.8722
- logFC ([2]; experiment wp107): −0.4141
- logFC [2, 8]: −0.4141

SMILES: C[C@@H]1C[C@@H](O)c2ncnc(N3CCN(C(=O)[C@H](CNCCCCCCCCCCc4cccc5c4C(=O)N(C4CCC(=O)NC4=O)C5=O)c4ccc(Cl)cc4)CC3)c21 (stereo partly shown) [INY.03.041.01]
- logFC ([2]; experiment wp118): −2.777
- logFC ([2]; experiment wp118, direction down): −2.777
- logFC ([2]; experiment wp135, 4 hr): −1.739
- logFC ([2]; experiment wp135, 4 hr, direction down): −1.739

SMILES: Cc1cc(Nc2ncc(Br)c(Nc3cccc(F)c3C(N)=O)n2)ccc1S(=O)(=O)NCCOCCOCCOCCOCCNc1cccc2c1C(=O)N(C1CCC(=O)NC1=O)C2=O (stereo not shown) [TMX.02.174]
- logFC [3]: −1.343
- logFC of IRAK3 (Q9Y616) [3]: −1.343

SMILES: Cc1ccc(NC(=O)c2cccc(C(F)(F)F)c2)cc1N1Cc2cnc(Nc3ccc(N4CCN(Cc5cn(CCCCCOc6cccc7c6C(=O)N(C6CCC(=O)NC6=O)C7=O)nn5)CC4)nc3)nc2N(C)C1=O (stereo not shown) [DB0646, N-(3-(7-((6-(4-((1-(5-((2-(2,6-Dioxopiperidin-3-yl)-1,3-dioxoisoindolin-4-yl)oxy)pentyl)-1H-1,2,3-triazol-4-yl)methyl)piperazin-1-v)pyridin-3-yl)amino)-1-methyl-2-oxo-1,4-dihydropyrimido[4,5-d]pyrimidin-3(2H)-yl)-4-methylphenyl)-3-(trifluoromethyl)benzamide]
- logFC ([4]; experiment wp107): −0.353
- logFC ([4]; experiment wp117): −0.3503
- logFC ([4]; experiment wp160, 8 hr): −0.4714

SMILES: CC(C)(C)c1nc(-c2cccc(NS(=O)(=O)c3c(F)cccc3F)c2F)c(-c2ccnc(NCCOCCNC(=O)CCOCCOCCNc3cccc4c3C(=O)N(C3CCC(=O)NC3=O)C4=O)n2)s1 (stereo not shown) [DD.03.106]
- logFC ([1]; experiment wp147, 2 uM): −0.3545
- logFC ([1]; experiment wp147, 4 uM): −0.4042
- logFC of EIF2AK2 (P19525) ([1]; Experiment wp147, 2 uM): −0.3545
- logFC of EIF2AK2 (P19525) ([1]; Experiment wp147, 4 uM): −0.4042

SMILES: NC(=O)c1c(F)cccc1Nc1nc(Nc2ccc(S(=O)(=O)NCCOCCOCCOCCOCCNc3cccc4c3C(=O)N(C3CCC(=O)NC3=O)C4=O)cc2)ncc1Br (stereo not shown) [TMX.02.138]
- logFC [3]: −1.544
- logFC of IRAK3 (Q9Y616) [3]: −1.544

SMILES: Cc1ccc(C(=O)Nc2ccc(CN3CCN(CCOCCOCCNC(=O)CNc4cccc5c4C(=O)N(C4CCC(=O)NC4=O)C5=O)CC3)c(C(F)(F)F)c2)cc1C#Cc1cnc2cccnn12 (stereo not shown) [TL13.150]
- logFC ([5]; experiment wp081): −2.834
- logFC ([5]; experiment wp081, direction down): −2.834

SMILES: Cc1ncsc1-c1ccc([C@H](C)NC(=O)[C@@H]2C[C@@H](O)CN2C(=O)[C@@H](NC(=O)CCOCCOCCN2CCN(c3ccc(Nc4ncc(Cl)c(Nc5ccccc5S(=O)(=O)C(C)C)n4)cc3)CC2)C(C)(C)C)cc1 [FMF.06.098.1]
- logFC ([6]; experiment wp108): −0.3674
- logFC ([6]; experiment wp114): −0.4124
- logFC of CHEK1 (O14757) ([6]; Experiment wp108): −0.3674
- logFC of CHEK1 (O14757) ([6]; Experiment wp114): −0.4124

SMILES: Cc1ccc(C(=O)Nc2ccc(CN3CCN(CCCOCCOCCOCCNC(=O)COc4cccc5c4C(=O)N(C4CCC(=O)NC4=O)C5=O)CC3)c(C(F)(F)F)c2)cc1C#Cc1cnc2cccnn12 (stereo not shown) [SB1.G.187]
- logFC ([5]; experiment wp056): −1.578
- logFC ([5]; experiment wp056, direction down): −1.578
- logFC ([5]; experiment wp103): −1.504
- logFC ([5]; experiment wp103, direction down): −1.504
- logFC ([5]; experiment wp105): −1.404
- logFC [5, 7]: −1.404
- logFC ([5]; experiment wp107): −1.996
- logFC [5, 8]: −1.996
- logFC ([5]; experiment wp172): −1.572
- logFC ([5]; experiment wp172, direction down): −1.572

SMILES: Nc1ncc(-c2ccc(S(=O)(=O)N(CCCNC(=O)CCOCCOCCOCCOCCOCCNc3cccc4c3C(=O)N(C3CCC(=O)NC3=O)C4=O)C3CC3)cc2)cc1-c1ccc2c(c1)CCNC2=O (stereo not shown) [WH.10417.099]
- logFC ([4]; experiment wp056): −0.5009
- logFC ([4]; experiment wp103): −0.5201
- logFC ([4]; experiment wp105): −0.3715
- logFC ([4]; experiment wp107): −0.5734

SMILES: O=C1CCC(N2C(=O)c3cccc(NCCCCCCCCN4CCC(NC(=O)c5[nH]ncc5NC(=O)c5c(Cl)cccc5Cl)CC4)c3C2=O)C(=O)N1 (stereo not shown) [MFH.5.126.1]
- logFC ([6]; experiment wp076): −0.3606
- logFC of CHEK1 (O14757) ([6]; experiment wp076): −0.3606

— patent publication US20240269139A1, “COMPOUNDS FOR TARGETED PROTEIN DEGRADATION OF KINASES” (DANA-FARBER CANCER INSTITUTE, INC., priority 2020, published 2024)
